According to ChEMBL document CHEMBL1201862, “PubChem BioAssay data set” (2004):
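Values below derive from 48-hour exposures of cells grown in 96-well plates, with endpoints linearly interpolated between the two concentrations bracketing the appropriate inhibition level. GI50 is the concentration that inhibits growth by half.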 The source made the active and inactive calls. Rule as the data show it: active = GI50 up to about 1.1 µM and inactive = higher.

Legend:
Assay in all cases: DTP human tumour cell line panel, 48 h
[1] = system: K562
[2] = system: OVCAR-3
[3] = system: UO-31
[4] = system: IGROV-1
[5] = system: SN12C
[6] = system: NCI/ADR-RES
[7] = system: SK-MEL-28
[8] = system: Hs-578T
[9] = system: HL-60
[10] = system: UACC-257
[11] = system: SNB-19
[12] = system: SNB-75
[13] = system: SW-620
[14] = system: TK-10
[15] = system: HT-29
[16] = system: KM12
[17] = system: LOX IMVI
[18] = system: U-251
[19] = system: MDA-MB-435
[20] = system: BT-549
[21] = system: HCT-116
[22] = system: NCI-H522
[23] = system: DU-145
[24] = system: MOLT-4
[25] = system: HCT-15
[26] = system: CAKI-1
[27] = system: A549
[28] = system: SK-MEL-2
[29] = system: PC-3
[30] = system: UACC-62
[31] = system: ACHN
[32] = system: COLO 205
[33] = system: CCRF-CEM
[34] = system: MDA-MB-231
[35] = system: SK-MEL-5
[36] = system: RPMI-8226
[37] = system: OVCAR-8
[38] = system: NCI-H460
[39] = system: NCI-H226
[40] = system: RXF 393
[41] = system: EKVX
[42] = system: NCI-H23
[43] = system: SK-OV-3
[44] = system: 786-0
[45] = system: Malme-3M
[46] = system: M14
[47] = system: OVCAR-4
[48] = system: OVCAR-5
[49] = system: HCC 2998
[50] = system: MCF7
[51] = system: MDA-N
[52] = system: T47D
[53] = system: HOP-62
[54] = system: SF-295
[55] = system: SF-268

For `Cc1ccc2c(O)cc(-c3cc4ccccc4s3)nc2n1`, the GI50 [1] was > 100 µM (inactive), the GI50 [2] was > 100 µM (inactive) and the GI50 [3] was 0.0353 µM (active). For the same compound, the GI50 [4] was 6.65 µM (inactive), the GI50 [5] was > 100 µM (inactive) and the GI50 [6] was > 57.7 µM (inactive). For the same compound, the GI50 [7] was > 100 µM (inactive), the GI50 [8] was > 41.6 µM (inactive) and the GI50 [9] was > 100 µM (inactive). The GI50 [10] was > 100 µM (inactive), the GI50 [11] was > 100 µM (inactive) and the GI50 [12] was 17.5 µM (inactive). For the same compound, the GI50 [13] was > 100 µM (inactive), the GI50 [14] was > 95.9 µM (inactive) and the GI50 [15] was > 84.7 µM (inactive). The GI50 [16] was > 73.1 µM (inactive), the GI50 [17] was > 94.6 µM (inactive) and the GI50 [18] was > 100 µM (inactive). For the same compound, the GI50 [19] was > 88.1 µM (inactive), the GI50 [20] was > 100 µM (inactive) and the GI50 [21] was > 100 µM (inactive). For the same compound, the GI50 [22] was 33.9 µM (inactive), the GI50 [23] was > 100 µM (inactive) and the GI50 [24] was > 100 µM (inactive). For the same compound, the GI50 [25] was > 70.3 µM, the GI50 [26] was 55 µM (inactive) and the GI50 [27] was > 100 µM (inactive). For the same compound, the GI50 [28] was > 100 µM (inactive), the GI50 [29] was > 100 µM (inactive) and the GI50 [30] was > 68.7 µM (inactive). For the same compound, the GI50 [31] was 47.6 µM (inactive), the GI50 [32] was > 100 µM (inactive) and the GI50 [33] was > 100 µM (inactive). For the same compound, the GI50 [34] was > 100 µM (inactive), the GI50 [35] was 74.5 µM (inactive) and the GI50 [36] was 4.33 µM (inactive). For the same compound, the GI50 [37] was 30.3 µM (inactive), the GI50 [38] was 50.9 µM (inactive) and the GI50 [39] was 14.2 µM (inactive). For the same compound, the GI50 [40] was 33.7 µM (inactive), the GI50 [41] was 27.4 µM (inactive) and the GI50 [42] was > 56.2 µM (inactive). The GI50 [43] was 45.1 µM (inactive), the GI50 [44] was > 75.5 µM (inactive) and the GI50 [45] was > 48.1 µM (inactive). The GI50 [46] was > 100 µM (inactive), the GI50 [47] was > 75 µM (inactive) and the GI50 [48] was > 100 µM (inactive). For the same compound, the GI50 [49] was > 100 µM (inactive), the GI50 [50] was 17.7 µM (inactive) and the GI50 [51] was 98.9 µM (inactive). The GI50 [52] was 2.13 µM (inactive), the GI50 [53] was 31.7 µM (inactive) and the GI50 [54] was 40.1 µM (inactive). The GI50 [55] was 43.2 µM (inactive).
